According to patent US20070104811A1, “Pharmaceutical composition useful for the treatment of prostate cancer” (priority 2005, published 2007):

Tests used:
[1] = system: neonatal skeletal muscle cell; experiment: Cell viability of control cells: neonatal skeletal muscle cell; format: cell-based, rat; details: 100 μg/ml M. koenigii + 100 μg/ml T. terrestris, total 200 μg/ml; 96 h
Method: The skeletal muscles from 2-day-old neonatal rat were isolated by method described previously by William E Russell (1997) with modifications. Briefly, Soleus muscle were dissected, minced and digested with 0.2% Type II Collagenase and 0.05% trypsin in Phosphate buffered Saline (PBS) pH 7.4, 0.15M NaCl. The dispersed skeletal muscle cells were centrifuged (1000 g, 10 minutes) washed and resuspended in Phosphate buffered Saline (PBS) with 1% antibiotic-antimycotic. Cells were preincubated for 30 minutes at 37° C., 95% air/5%CO2. The floating muscle cells were plated on collagen coated T-25 flaks in Dulbecco's modified Eagle Medium enriched with 10% Fetal. Bovine Serum and 1% antibiotic-antimycotic
Viability of PC-3 after treatment as at the indicated times was determined by MTT assay -Cell titre 96 AQoueus One solution Cell Proliferation Assay (Promega, Corp. Madison, Wis.) as per manufacturer's protocol. Briefly, 10,000 cells were plated in triplicate in 96 well plates and incubated for 12 hours in complete media. Compound MK-3 was added as indicated on replacing them to fresh complete media and incubated upto 96 hours for varied time periods. 20 μl per well of cell titre 96 AQoueus One solution reagent. […] Absorbance was recorded at 490 nm with 96 well plate readers. Reference wavelength of 630 nm was used to reduce background contributed by non-specific absorbance due to cell debris.

hepatocyte = experiment: Cell viability of control cells: neonatal hepatocyte; format: cell-based, rat; details: 100 μg/ml M. koenigii + 100 μg/ml T. terrestris, total 200 μg/ml; 96 h
Method: The hepatocytes from 2-day-old neonatal rat were isolated by method described previously by William E Russell (1997) with modifications. Briefly, the livers were perfused through the portal vein with a calcium-free solution consisting of 150 mM NaCl, 2.8 mM KCl, 5.5 mM glucose, and 25 mM HEPES (pH 7.6) for 10 min, followed by mincing and digestion in DMEM containing 0.05% collagenase type IV for 30 minutes. The cells were centrifuged (2000 g, 10 minutes) and dispersed in DMEM enriched with 10% fetal Bovine Serum, 1% antibiotic-antimycotic.
(§1) Viability of PC-3 after treatment as at the indicated times was determined by MTT assay -Cell titre 96 AQoueus One solution Cell Proliferation Assay (Promega, Corp. Madison, Wis.) as per manufacturer's protocol. Briefly, 10,000 cells were plated in triplicate in 96 well plates and incubated for 12 hours in complete media. Compound MK-3 was added as indicated on replacing them to fresh complete media and incubated upto 96 hours for varied time periods. 20 μl per well of cell titre 96 AQoueus One solution reagent. Incubate the plate for 1-4 hours at 37° C. and humidified 5% CO2 atmosphere. Absorbance was recorded at 490 nm with 96 well plate readers. Reference wavelength of 630 nm was used to reduce background contributed by non-specific absorbance due to cell debris.

[2] = Acute toxicity as per WHO guidelines, haematological parameters; format: in vivo, Mice, Balb/C; details: mahanine 2 gm/kg body weight orally once, 15 days after treatment; vehicle control 92
Method: Experiments for acute toxicity are performed as per the guidelines of WHO. Experimental subject: Mice, Balb/C Male, female. 25 gms body weight (approx) 16 mice were divided into 2 groups 8 animals were received the dosage of @2 gm/kg body weight of combined extract. Equal volume of the vehicle (DMSO) were given to 8 animals wherein dose administered orally once and then animals sacrificed and haematological parameters checked 15 days after treatment.
Experiments for acute toxicity are performed as per the guidelines of WHO. Experimental subject: Mice, Balb/C Male, female. 25 gms body weight (approx) 16 mice were divided into 2 groups 8 animals were received the compound @2 gm/kg body weight. Equal volume of the vehicle (DMSO) were given to 8 animals wherein dose administered orally once and then animals sacrificed and haematological and biochemical parameters checked 15 days after treatment.

cardiomyocyte = experiment: Cell viability of control cells: neonatal cardiomyocyte; format: cell-based, rat; details: 100 μg/ml M. koenigii + 100 μg/ml T. terrestris, total 200 μg/ml; 96 h
Method: The cardiomyocytes from 2-day-old neonatal rat were isolated by the method previously described by Yoshihiro Kimura (1994) with modifications. Briefly, heart was excised and minced in pre warmed (37° C.) Ads buffer (1.2M NaCl, 198 mM HEPES, 54 mM KCl, 8.3 mM MgSO4, 55.4 mM glucose, 95 mM NaH2PO4), digested in typeII Collagenase 0.05% and Pancreatin in 3-succesive digestions of 15 minutes each. Supernatant was pooled and cells palleted at 2000 g, 10 minutes. Cells were resuspended and plated in collagen coated T-25 flaks in Medium-199 enriched with 10% Fetal Bovine Serum and 1% antibiotic-antimycotic.
as §1

Substance: mahanine
- toxic effects / cell death [1]: no sign of cell death
- toxic effects / cell death (hepatocyte): no sign of cell death
- WBC [2]: 89
- toxic effects / cell death (cardiomyocyte): no sign of cell death
